Measured values: patent US9113631B2, “1,3-diaryl-substituted heterocyclic pesticides” (E I DU PONT DE NEMOURS AND COMPANY, priority 2011, dated 2015)

System: potato leafhopper (Empoasca fabae)
Assay: Test F: control of potato leafhopper on Soleil bean plant, contact and/or systemic
Type: in vivo
Details: 144 h, sprayed at 250 ppm, adults on Soleil bean plant, 6 days, 24° C., read-out: control efficacy, very good to excellent: mortality
Procedure: Test compounds were formulated using a solution containing 10% acetone, 90% water and 300 ppm X-77® Spreader Lo-Foam Formula non-ionic surfactant containing alkylarylpolyoxyethylene, free fatty acids, glycols and isopropanol (Loveland Industries, Inc. Greeley, Colo., USA). The formulated compounds were applied in 1 mL of liquid through a SUJ2 atomizer nozzle with 1/8 JJ custom body (Spraying Systems Co., Wheaton, Ill., USA) positioned 1.27 cm (0.5 inches) above the top of each test unit. Test compounds were sprayed at 250 ppm and/or 50 ppm, and replicated three times. After spraying of the formulated test compound, each test unit was allowed to dry for 1 h and then a black, screened cap was placed on top. The test units were held for 6 days in a growth chamber at 25° C. and 70% relative humidity. Plant feeding damage was then visually assessed based on foliage consumed. […]
Test compounds were formulated and sprayed at 250 ppm and/or 50 ppm, and the tests were replicated three times as described for Test A. After spraying, the test units were allowed to dry for 1 h before they were post-infested with 5 potato leafhoppers (18-21-day-old adults). […] Each test unit was then visually assessed for insect mortality.

## N#CC1CCN(Cc2cn(-c3cccc(C(F)(F)F)c3)nc2-c2ccc(F)cc2)CC1 [Compound 12, 1-[[3-(4-fluorophenyl)-1-[3-(trifluoromethyl)phenyl]-1H-pyrazol-4-yl]methyl]-4-piperidinecarbonitrile]
  mortality at 250 ppm: ≥ 80%
